Measured values published in ChEMBL document CHEMBL5678818, “Discovery of potent SOS1 inhibitors that block RAS activation via disruption of the RAS-SOS1 interaction” (Proc Natl Acad Sci U S A, 2019).

What was measured:
[1] = target: T1, Atypical kinase COQ8B, mitochondrial (Homo sapiens) (UniProt Q96D53); assay: Inhibition of ADCK4 (unknown origin) assessed as residual activity at 1000 nM by KINOMEscan analysis relative to control
T1 sequence (whole entry): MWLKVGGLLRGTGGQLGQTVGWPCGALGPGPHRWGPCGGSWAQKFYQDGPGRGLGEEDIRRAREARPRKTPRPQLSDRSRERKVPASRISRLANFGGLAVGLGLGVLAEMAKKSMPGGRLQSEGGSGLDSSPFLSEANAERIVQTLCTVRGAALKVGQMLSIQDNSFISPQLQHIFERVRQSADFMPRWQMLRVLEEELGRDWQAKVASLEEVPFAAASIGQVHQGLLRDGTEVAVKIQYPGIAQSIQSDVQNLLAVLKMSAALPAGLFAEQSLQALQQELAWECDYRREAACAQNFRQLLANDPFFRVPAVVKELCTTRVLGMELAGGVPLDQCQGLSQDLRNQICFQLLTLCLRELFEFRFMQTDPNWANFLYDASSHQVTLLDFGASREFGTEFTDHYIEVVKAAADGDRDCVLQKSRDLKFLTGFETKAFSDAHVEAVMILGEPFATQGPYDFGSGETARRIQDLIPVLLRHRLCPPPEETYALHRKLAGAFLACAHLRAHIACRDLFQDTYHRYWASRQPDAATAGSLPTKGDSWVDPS

[2] = target: T2, Aurora kinase C (Homo sapiens) (UniProt Q9UQB9); assay: Inhibition of AURKC (unknown origin) assessed as residual activity at 1000 nM by KINOMEscan analysis relative to control
T2 sequence (whole entry): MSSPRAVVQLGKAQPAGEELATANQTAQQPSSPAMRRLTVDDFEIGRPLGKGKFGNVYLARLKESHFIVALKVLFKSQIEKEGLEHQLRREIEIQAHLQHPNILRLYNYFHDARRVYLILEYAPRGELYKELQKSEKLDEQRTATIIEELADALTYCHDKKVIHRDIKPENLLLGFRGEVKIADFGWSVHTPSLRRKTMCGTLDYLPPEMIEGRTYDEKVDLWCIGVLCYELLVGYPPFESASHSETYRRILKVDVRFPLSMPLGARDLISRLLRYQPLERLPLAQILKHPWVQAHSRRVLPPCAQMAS

[3] = target: Casein kinase II subunit alpha' (Homo sapiens) (UniProt P19784); assay: Inhibition of CSNK2A2 (unknown origin) assessed as residual activity at 1000 nM by KINOMEscan analysis relative to control
Casein kinase II subunit alpha' (Homo sapiens), sequence (P19784 whole entry, looked up): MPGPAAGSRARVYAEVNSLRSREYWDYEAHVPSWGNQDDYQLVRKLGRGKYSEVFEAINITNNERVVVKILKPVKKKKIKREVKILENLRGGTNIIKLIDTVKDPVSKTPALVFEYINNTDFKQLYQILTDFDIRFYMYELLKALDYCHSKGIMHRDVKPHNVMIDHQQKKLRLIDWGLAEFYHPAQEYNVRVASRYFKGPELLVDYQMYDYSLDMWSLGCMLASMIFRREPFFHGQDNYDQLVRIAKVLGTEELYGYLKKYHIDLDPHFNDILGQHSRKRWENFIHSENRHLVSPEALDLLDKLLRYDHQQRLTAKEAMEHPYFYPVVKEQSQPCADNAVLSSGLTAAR

[4] = target: T3, Ephrin type-B receptor 1 (Homo sapiens) (UniProt P54762); assay: Inhibition of EPHB1 (unknown origin) assessed as residual activity at 1000 nM by KINOMEscan analysis relative to control
T3 sequence (whole entry): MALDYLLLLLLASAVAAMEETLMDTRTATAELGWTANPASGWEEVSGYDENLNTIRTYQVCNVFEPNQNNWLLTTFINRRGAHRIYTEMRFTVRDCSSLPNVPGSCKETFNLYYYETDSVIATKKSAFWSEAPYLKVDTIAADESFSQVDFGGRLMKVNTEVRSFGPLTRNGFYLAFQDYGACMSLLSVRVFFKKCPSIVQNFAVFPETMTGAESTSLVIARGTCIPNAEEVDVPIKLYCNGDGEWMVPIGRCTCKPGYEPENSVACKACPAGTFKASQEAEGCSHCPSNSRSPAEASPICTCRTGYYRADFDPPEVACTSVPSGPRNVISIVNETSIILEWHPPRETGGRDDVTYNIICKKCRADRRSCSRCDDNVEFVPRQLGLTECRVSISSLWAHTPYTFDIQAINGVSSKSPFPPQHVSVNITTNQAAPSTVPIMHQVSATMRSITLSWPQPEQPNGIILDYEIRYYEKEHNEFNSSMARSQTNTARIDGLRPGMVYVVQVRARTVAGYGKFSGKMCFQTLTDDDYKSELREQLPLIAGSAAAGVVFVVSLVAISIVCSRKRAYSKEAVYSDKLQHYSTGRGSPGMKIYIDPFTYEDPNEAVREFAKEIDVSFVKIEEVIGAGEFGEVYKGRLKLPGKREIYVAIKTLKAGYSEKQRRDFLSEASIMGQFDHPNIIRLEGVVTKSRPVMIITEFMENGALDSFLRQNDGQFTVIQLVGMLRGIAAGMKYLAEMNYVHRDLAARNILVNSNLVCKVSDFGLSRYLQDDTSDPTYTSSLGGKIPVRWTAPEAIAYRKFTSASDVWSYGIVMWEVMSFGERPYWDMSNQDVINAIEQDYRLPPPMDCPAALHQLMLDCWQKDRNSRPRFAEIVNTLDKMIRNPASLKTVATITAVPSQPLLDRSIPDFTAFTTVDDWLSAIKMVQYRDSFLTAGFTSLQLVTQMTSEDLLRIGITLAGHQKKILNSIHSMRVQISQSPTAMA

[5] = target: Mast/stem cell growth factor receptor Kit (Homo sapiens) (UniProt P10721); assay: Inhibition of KIT (unknown origin) assessed as residual activity at 1000 nM by KINOMEscan analysis relative to control
Mast/stem cell growth factor receptor Kit (Homo sapiens), sequence (P10721 whole entry): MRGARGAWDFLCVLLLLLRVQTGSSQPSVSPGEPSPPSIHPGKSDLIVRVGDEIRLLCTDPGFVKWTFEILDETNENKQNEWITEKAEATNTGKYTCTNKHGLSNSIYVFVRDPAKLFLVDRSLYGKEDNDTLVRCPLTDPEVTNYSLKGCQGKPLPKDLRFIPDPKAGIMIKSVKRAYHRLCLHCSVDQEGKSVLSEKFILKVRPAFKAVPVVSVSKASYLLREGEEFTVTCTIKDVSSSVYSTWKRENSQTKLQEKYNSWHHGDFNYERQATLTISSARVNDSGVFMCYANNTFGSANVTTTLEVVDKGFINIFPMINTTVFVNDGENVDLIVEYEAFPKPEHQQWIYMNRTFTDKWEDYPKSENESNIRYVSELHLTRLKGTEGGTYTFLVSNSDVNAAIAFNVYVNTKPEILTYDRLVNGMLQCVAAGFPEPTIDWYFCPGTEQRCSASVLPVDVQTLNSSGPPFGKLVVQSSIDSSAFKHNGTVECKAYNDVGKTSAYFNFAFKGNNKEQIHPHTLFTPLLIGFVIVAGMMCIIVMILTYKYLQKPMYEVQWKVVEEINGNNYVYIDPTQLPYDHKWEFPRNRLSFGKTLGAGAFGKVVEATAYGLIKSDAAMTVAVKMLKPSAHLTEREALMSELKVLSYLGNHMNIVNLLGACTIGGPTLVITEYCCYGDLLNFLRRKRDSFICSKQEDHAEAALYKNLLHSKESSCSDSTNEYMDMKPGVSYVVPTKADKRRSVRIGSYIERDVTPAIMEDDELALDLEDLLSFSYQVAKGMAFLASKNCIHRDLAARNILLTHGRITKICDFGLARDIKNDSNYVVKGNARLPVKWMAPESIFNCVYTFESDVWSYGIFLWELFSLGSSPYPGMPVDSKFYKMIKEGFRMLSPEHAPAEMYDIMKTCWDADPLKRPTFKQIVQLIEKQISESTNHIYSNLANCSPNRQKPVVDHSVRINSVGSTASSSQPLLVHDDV

[6] = target: Dual specificity mitogen-activated protein kinase kinase 1 (Homo sapiens) (UniProt Q02750); assay: Inhibition of MEK1 (unknown origin) assessed as residual activity at 1000 nM by KINOMEscan analysis relative to control
Dual specificity mitogen-activated protein kinase kinase 1 (Homo sapiens), sequence (Q02750 whole entry): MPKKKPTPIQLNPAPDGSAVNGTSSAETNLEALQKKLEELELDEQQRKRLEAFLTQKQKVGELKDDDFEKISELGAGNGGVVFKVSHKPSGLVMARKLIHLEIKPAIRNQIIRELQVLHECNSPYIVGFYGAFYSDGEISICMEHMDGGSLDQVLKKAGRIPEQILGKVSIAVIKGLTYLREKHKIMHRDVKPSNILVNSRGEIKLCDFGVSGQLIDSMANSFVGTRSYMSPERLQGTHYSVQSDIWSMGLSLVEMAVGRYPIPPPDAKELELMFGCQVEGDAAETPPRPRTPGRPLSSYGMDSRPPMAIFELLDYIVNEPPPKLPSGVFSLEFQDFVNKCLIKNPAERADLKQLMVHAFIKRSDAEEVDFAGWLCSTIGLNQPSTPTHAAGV

[7] = target: T4, Dual specificity mitogen-activated protein kinase kinase 3 (Homo sapiens) (UniProt P46734); assay: Inhibition of MEK3 (unknown origin) assessed as residual activity at 1000 nM by KINOMEscan analysis relative to control
T4 sequence (whole entry): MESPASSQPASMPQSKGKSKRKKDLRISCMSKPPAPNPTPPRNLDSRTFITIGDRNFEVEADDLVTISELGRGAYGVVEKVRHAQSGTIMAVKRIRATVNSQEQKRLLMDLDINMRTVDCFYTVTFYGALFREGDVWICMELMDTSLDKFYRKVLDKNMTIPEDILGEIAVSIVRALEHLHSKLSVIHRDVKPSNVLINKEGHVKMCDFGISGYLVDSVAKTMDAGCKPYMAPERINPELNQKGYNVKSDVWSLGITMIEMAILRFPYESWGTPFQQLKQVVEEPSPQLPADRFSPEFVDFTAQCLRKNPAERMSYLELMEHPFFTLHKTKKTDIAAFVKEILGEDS

[8] = target: Myosin-IIIa (Homo sapiens) (UniProt Q8NEV4); assay: Inhibition of MYO3A (unknown origin) assessed as residual activity at 1000 nM by KINOMEscan analysis relative to control
Myosin-IIIa (Homo sapiens), sequence (Q8NEV4 whole entry): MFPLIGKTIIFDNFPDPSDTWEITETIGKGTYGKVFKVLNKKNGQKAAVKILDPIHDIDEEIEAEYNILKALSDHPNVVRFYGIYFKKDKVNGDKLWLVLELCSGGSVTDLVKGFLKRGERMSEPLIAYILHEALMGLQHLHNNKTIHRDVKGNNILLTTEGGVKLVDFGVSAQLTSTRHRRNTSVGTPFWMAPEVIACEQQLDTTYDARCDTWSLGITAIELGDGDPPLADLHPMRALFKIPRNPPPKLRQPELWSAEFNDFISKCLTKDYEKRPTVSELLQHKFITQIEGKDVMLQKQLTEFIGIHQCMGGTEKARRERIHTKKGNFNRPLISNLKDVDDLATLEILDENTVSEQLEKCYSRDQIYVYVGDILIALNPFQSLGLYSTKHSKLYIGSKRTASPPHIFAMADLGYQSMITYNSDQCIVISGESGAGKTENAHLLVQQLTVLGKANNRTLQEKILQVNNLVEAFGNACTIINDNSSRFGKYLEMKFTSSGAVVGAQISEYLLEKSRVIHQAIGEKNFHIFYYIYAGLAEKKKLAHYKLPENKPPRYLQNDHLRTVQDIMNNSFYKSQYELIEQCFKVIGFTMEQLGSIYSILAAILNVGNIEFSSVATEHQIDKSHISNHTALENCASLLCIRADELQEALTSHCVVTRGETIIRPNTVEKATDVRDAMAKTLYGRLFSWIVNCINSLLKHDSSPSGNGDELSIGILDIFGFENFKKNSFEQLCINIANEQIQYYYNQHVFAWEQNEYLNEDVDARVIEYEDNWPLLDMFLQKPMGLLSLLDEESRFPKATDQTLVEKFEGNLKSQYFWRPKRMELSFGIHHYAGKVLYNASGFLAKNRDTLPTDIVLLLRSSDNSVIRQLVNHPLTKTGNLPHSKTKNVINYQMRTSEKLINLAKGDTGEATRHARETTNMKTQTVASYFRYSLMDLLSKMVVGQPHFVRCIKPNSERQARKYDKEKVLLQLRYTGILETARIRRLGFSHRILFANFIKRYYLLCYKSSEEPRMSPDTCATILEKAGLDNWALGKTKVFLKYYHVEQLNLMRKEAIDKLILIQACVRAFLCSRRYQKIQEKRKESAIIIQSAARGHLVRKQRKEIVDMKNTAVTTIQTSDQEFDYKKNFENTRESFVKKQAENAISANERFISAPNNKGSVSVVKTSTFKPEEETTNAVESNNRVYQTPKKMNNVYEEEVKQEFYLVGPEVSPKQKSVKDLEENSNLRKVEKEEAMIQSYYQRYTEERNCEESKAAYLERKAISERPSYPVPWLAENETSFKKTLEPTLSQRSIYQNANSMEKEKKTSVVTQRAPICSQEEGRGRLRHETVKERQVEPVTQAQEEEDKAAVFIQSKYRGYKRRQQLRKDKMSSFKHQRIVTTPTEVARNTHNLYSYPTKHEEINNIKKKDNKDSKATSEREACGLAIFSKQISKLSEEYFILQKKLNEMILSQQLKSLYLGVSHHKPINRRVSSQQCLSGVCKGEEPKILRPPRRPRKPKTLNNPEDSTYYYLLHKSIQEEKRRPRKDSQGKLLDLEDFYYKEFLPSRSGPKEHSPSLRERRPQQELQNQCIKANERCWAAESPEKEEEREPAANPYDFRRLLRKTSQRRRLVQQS

[9] = target: Serine/threonine-protein kinase PAK 3 (Homo sapiens) (UniProt O75914); assay: Inhibition of PAK3 (unknown origin) assessed as residual activity at 1000 nM by KINOMEscan analysis relative to control
Serine/threonine-protein kinase PAK 3 (Homo sapiens), sequence (O75914 whole entry, looked up): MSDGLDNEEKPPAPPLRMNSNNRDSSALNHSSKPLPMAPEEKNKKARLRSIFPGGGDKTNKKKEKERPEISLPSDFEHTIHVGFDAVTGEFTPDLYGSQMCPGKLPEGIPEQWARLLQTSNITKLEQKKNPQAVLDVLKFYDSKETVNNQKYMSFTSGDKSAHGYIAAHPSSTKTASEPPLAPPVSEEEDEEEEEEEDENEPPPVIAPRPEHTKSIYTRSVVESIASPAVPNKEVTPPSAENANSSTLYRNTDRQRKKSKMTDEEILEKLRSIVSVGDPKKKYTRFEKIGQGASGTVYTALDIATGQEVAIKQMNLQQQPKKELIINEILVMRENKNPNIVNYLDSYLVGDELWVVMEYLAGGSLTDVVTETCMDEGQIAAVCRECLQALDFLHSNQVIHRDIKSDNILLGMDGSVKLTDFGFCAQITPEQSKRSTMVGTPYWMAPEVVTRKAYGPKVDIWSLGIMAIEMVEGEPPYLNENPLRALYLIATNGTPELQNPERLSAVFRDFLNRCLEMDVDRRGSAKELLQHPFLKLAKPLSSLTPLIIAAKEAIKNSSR

[10] = target: Proto-oncogene tyrosine-protein kinase receptor Ret (Homo sapiens) (UniProt P07949); assay: Inhibition of RET (unknown origin) assessed as residual activity at 1000 nM by KINOMEscan analysis relative to control
[11] = target: High affinity nerve growth factor receptor (Homo sapiens) (UniProt P04629); assay: Inhibition of TRKA (unknown origin) assessed as residual activity at 1000 nM by KINOMEscan analysis relative to control
High affinity nerve growth factor receptor (Homo sapiens), sequence (P04629 33-796 limits assumed): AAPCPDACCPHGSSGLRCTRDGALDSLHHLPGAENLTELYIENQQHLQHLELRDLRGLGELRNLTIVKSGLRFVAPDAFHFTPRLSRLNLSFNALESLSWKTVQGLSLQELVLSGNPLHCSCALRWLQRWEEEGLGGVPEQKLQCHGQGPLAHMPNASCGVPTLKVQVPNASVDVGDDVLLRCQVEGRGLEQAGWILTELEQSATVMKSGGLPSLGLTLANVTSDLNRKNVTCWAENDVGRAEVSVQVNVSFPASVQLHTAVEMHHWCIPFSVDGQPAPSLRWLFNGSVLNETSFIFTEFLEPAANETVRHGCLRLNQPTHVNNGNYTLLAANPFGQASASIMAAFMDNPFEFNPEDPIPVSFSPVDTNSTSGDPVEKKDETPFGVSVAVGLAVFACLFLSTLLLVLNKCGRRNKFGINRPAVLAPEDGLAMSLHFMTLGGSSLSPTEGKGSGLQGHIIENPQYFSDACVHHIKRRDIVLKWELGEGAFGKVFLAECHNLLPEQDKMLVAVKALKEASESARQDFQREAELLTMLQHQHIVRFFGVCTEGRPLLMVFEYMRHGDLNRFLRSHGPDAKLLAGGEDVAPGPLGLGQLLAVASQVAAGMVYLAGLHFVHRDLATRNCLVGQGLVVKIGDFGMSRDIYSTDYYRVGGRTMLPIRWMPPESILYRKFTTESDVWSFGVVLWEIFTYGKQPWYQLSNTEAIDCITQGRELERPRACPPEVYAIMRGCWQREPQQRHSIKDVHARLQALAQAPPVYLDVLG

## COc1cc2nc(C)nc(N[C@H](C)c3cccc(-c4cn[nH]c4)c3)c2cc1OC
[1]
  Activity: 89%
[2]
  Activity: 74%
[3]
  Activity: 100%
[4]
  Activity: 77%
[5]
  Activity: 99%
[6]
  Activity: 85%
[7]
  Activity: 54%
[8]
  Activity: 92%
[9]
  Activity: 34%
[10]
  Activity: 94%
[11]
  Activity: 99%

## COc1cc2ncnc(N[C@H](C)c3cccc4ccccc34)c2cc1OC
[1]
  Activity: 100%
[2]
  Activity: 100%
[3]
  Activity: 90%
[4]
  Activity: 100%
[5]
  Activity: 100%
[6]
  Activity: 96%
[7]
  Activity: 100%
[8]
  Activity: 97%
[9]
  Activity: 58%
[10]
  Activity: 92%
[11]
  Activity: 97%
